One experiment relates to caspase 1. As to the kind of experiment: Caspase 1 activity assay in PMA-differentiated THP1 cells treated with LPS and ATP. The note with it: peptide at 2 nM-20 nM (tested 0-500 nM). The format is cell-based, human. As for the experimental part: THP1-null (THP1) cells were plated at a final concentration of 1×10^6/mL in 96 well plates and incubated with PMA (0.5 μM) for 3 hours 37° C. in supplemented RPMI. Media was subsequently changed every 24 hours for 3 days. Various subsets of wells were selected and cells were treated for 60 minutes at 37° C. in serum-free RPMI with: (A) APC (4 μg/mL), TR47 (50 μM-2 nM), scrTR47 (50 μM), SFLLRN (50 μM), TFLLRN (50 μM); (B) P3R (50 μM-500 nM), P3K (50 μM); (C) APC (4 or 1 μg/mL), TR47 (8 nM), P3R (500 nM) or TR47+P3R (8 nM and 500 nM, respectively); (D) TR47 (0-128 nM) (●)±P3R (500 nM) (□); (E) P3R (0-500 nM) (●)±TR47 (1 nM) (□). Following DPBS wash, cells were incubated with LPS (1 μg/mL) for 3 hours at 37° C. in serum-free RPMI. After a DPBS wash, cells were incubated with ATP (5 mM) in the presence or absence of 10 μM YVAD (caspase 1 inhibitor) or 2.5 μM ZVAD (pan-caspase inhibitor) for 45 minutes at 37° C., prior to performing the caspase 1 activity assay following manufacturer's directions measuring luminescence (relative luminescent units, RLU). (D & E) Experimental caspase 1 activity was normalized to YVAD (caspase 1 inhibitor) luminescence units. (A-E) Data points represent mean±S.D. of at least 3 independent experiments. *P<0.05 (vs. LPS+ATP); #P<0.05 (vs. LPS+ATP & APC, TR47 or P3R); **P<0.005 (vs. LPS+ATP & TR47+500 nM P3R); n.s. not significant.
THP1 cells were plated at a final concentration of 1×10^6/mL in 96 well plates and incubated with PMA (0.5 μM) for 3 hours 37° C. in supplemented RPMI. Media was subsequently changed every 24 hours for 3 days. Selected wells were treated with APC (4 μg/mL), (A) 50 μM or (B) 2 μM of P3R, P3Rm, P3R 51-65, P3R 51-59, P3R 54-59 or P3R 59-65 for 1 hour, washed with DPBS, and incubated with LPS (1 μg/mL) for 3 hours at 37° C. in serum-free RPMI. Cells were washed with DPBS and incubated with ATP (5 mM) in the presence or absence of 10 μM YVAD (caspase 1 inhibitor; C1i) or 2.5 μM ZVAD (pan-caspase inhibitor; pCi) for 45 minutes at 37° C., prior to performing the caspase 1 activity assay following manufacturer's directions measuring luminescence (relative luminescent units, RLU). (C) Diagram showing the PAR3 sequence, peptide sequences and relative (anti-inflammatory) activity. These include sequences of P3R (SEQ ID NO:4), P3Rm (SEQ ID NO:8), P3R 51-65 (SEQ ID NO:9), P3R 51-59 (SEQ ID NO:10), P3R 54-59 (SEQ ID NO:54) and P3R 59-65 (SEQ ID NO:55).
THP1 cells were plated at a final concentration of 1×10^6/mL in 96 well plates and incubated with PMA (0.5 μM) for 3 hours 37° C. in supplemented RPMI. Media was subsequently changed every 24 hours for 3 days. Selected wells were treated with APC (4 μg/mL), TR47, in (A) 9-mer (TR47 9-mer; NPNDKYEPF (SEQ ID NO:36)) or Ac-TR47 (Acylated TR47) at either 50 μM or 10 nM or (B) 50 μM of 16-mer-TR47, 8-mer-TR47, 6-mer-TR47, TR47 N−1, TR47 N−2, TR47 N−5, TR47AQ, TR47AD, TR47AA or TR48-54 for 1 hour, washed with DPBS, and incubated with LPS (1 μg/mL) for 3 hours at 37° C. in serum-free RPMI. Cells were washed with DPBS and incubated with ATP (5 mM) in the presence or absence of 10 μM YVAD (caspase 1 inhibitor; C1i) or 2.5 μM ZVAD (pan-caspase inhibitor; pCi) for 45 minutes at 37° C., prior to performing the caspase 1 activity assay following manufacturer's directions measuring luminescence (relative luminescent units, RLU). #P<0.001 (vs. LPS+ATP), **P<0.005 (vs. LPS+ATP), * (P<0.05 vs. LPS+ATP). (C) Diagram showing the PAR1 sequence, peptide sequences and relative (anti-inflammatory) activity. These include sequences of TR47 (SEQ ID NO:7), Ac-TR47 (SEQ ID NO:56), 16-mer-TR47 (SEQ ID NO:43), 9-mer-TR47 (SEQ ID NO:36), 8-mer-TR47 (SEQ ID NO:35), 6-mer-TR47 (SEQ ID NO:33), TR47 N−1 (SEQ ID NO:47), TR47 N−2 (SEQ ID NO:51), TR47 N−5 (SEQ ID NO:48), TR47AQ (SEQ ID NO:49), TR47AD (SEQ ID NO:52), TR47AA (SEQ ID NO:50) and TR48-54 (SEQ ID NO:53). […]

The subject of experiment [1] is endothelial cells (EA.hy926). As to the kind of experiment: Transendothelial Electric Resistance (TER) assay of thrombin-induced endothelial barrier disruption. The format is cell-based. The source says: The bottom curve in each panel of the figure is labeled as IIa for thrombin alone and represents the observed effects for thrombin (IIa) in the absence of peptide. In each panel, IIa was always present for each peptide added. The number in each panel indicates the concentration of each peptide for the respective curves. The peptide concentration of 0 is represented by the bottom curve labeled “IIa”. (A) the dose response inhibition over time of TER, expressed by Normalized Cell Index (NCI) by the PAR1 derived peptide P1(47-66) or TR47 using concentrations between 5 and 50 nM. (B) the dose response inhibition over time of NCI by the PAR3-derived peptide P3(42-65) or P3R using a 5 to 50 nM concentration range. (C) The NCI dose response inhibition over time by the short sequence PAR1-derived peptide P1(47-55) using a range of concentrations between 50 nM and 100 μM peptide. (D) The NCI dose response inhibition over time by the short sequence PAR3-derived peptide P3(42-54) using a range of concentrations between 1 μM and 200 μM peptide. (E) The NCI dose response inhibition over time by the hybrid peptide G10 in which the P1(47-55) peptide described in panel C was linked to a PAR3 peptide P3(51-65) by using 10 Gly residues. In this case the range of concentrations to study the dose response inhibition was between 3 and 50 nM peptide. An estimate for the percentage of activity for each peptide dilution in presence of thrombin can be quantified by obtaining the Area under the Curve (AUC) for each peptide dilution in comparison to the value for the AUC for thrombin alone in the absence of any peptide. These values were used to calculate the potency of each PAR peptide.
Transendothelial Electric Resistance (TER)-based assays were used to monitor the disruption of endothelial barrier integrity caused by thrombin. The anti-inflammatory, vasculoprotective actions of different PAR peptides for protecting against thrombin-induced vascular leakage on cultured endothelial cells (EA.hy926) were followed in real time using an iCELLigence machine (ACEA Biosciences Inc, San Diego, Calif.). EA.hy926 cells at a density of 10,000/well were pipetted into the wells of gold-plated microelectrode sensor (L8, Acea Biosciences). Subsequently, the increase of electrical resistance was monitored as cells grew and spread out on the microelectrodes to obtain confluence (reaching a plateau) over the TER plates connected to the recording instrument that detected in real time the changes in TER for each well. The effects of different PAR-derived peptides at the indicated concentrations were tested for dose-response inhibition of thrombin's effects when each of the peptide dilutions was added 30 min prior to the addition of thrombin (0.25 nM final in all wells). The percentage of inhibition was proportional to the increase in TER signal over time. Cell index values, reflecting TER signals, were normalized prior to addition of thrombin following manufacturer's directions.

This is an account of results in patent US20220313780A1, “METHODS AND COMPOSITIONS FOR TREATING INFLAMMATORY CONDITIONS” (THE SCRIPPS RESEARCH INSTITUTE, priority 2019, published 2022).

Consider “NPNDKYEPFGGGGGGGGGGFPFSALEGWTGATIT [G10, PAR1/PAR3 fusion peptide, P1(47-55) linked to P3(51-65) by 10 Glycine residues]”, for which, in the experiment with caspase 1, the caspase-1 activity result was “a significant reduction in caspase-1 activity”. Also, the “effect on thrombin-induced disruption of endothelial barrier” value in experiment [1] (peptide at 3 to 50 nM) is reported as “very significant effects”. In experiment [1] (protection of endothelial barrier integrity), the “effectiveness relative to PAR3 peptide P3(42-54) alone” value is on record as more than 100 fold. In experiment [1] (protection of endothelial barrier integrity, 6 nM G10 compared to 50 nM PAR1 peptide), the “potency relative to the long PAR1 peptide TR47” value is approximately 8 fold. The EC50 in experiment [1] (stabilization of endothelial cell barrier integrity, thrombin 0.25 nM, peptide added 30 min prior, read-out: half-maximum observed activity) was approximately 6 nM.
